Measurements from patent publication US20240398828A1, “HETERO-ATOM CONTAINING COMPOUNDS AND USES THEREOF” (Kumquat Biosciences Inc., priority 2021, published 2024).

Experiments:
PTPN2 (i.e., TC-PTP) = biological target: T1, PTPN2 (i.e., TC-PTP) (Homo sapiens, UniProt P17706); assay: Phosphatase activity assay (DiFMUP substrate), PTPN2; assay type: biochemical; settings: compounds binned ≤1 uM or >1 uM
T1 sequence (P17706 1-415): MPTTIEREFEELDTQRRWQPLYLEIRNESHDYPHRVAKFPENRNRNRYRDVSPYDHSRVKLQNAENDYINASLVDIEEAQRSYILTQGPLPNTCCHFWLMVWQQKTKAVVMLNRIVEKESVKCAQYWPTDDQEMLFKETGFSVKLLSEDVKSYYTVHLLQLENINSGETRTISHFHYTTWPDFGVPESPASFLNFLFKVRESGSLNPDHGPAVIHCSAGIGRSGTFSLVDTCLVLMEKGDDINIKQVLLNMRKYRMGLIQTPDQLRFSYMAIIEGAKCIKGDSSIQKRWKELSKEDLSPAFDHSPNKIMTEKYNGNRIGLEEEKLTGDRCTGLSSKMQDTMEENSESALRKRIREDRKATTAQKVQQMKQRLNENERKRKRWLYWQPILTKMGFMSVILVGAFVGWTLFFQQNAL
Outline: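 First, serially diluted inhibitor is mixed about 2 minutes with enzyme in pH 7.5 HEPES/NaCl/EDTA/DTT/Tween-20 buffer. Next, DiFMUP is added at the enzyme's Km, approximately 45 μM for PTPN2. Finally, DiFMU appearance is read continuously at room temperature and rates are fitted for IC50.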

PTPN1 (i.e., PTP1B) = biological target: T2, PTPN1 (i.e., PTP1B) (Homo sapiens, UniProt P18031); assay: Phosphatase activity assay (DiFMUP substrate), PTP1B; assay type: biochemical; settings: compounds binned ≤1 uM or >1 uM
T2 sequence (P18031 1-435): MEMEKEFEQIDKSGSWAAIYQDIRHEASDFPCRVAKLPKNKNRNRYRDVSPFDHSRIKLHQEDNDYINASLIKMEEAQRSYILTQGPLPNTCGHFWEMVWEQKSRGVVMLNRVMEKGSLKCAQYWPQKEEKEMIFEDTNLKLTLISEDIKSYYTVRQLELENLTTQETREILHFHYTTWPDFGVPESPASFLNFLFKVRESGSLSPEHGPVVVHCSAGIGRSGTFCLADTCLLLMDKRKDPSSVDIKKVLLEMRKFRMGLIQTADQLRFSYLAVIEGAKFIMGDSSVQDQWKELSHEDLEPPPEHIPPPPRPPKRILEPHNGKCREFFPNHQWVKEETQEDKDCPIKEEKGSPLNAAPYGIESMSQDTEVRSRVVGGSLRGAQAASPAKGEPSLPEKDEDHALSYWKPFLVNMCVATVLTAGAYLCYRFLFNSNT
Outline: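 RT, HEPES pH 7.5 buffer with DTT/Tween-20. 10-point inhibitor series premixed ~2 min with enzyme (PTPN2 0.025 ng/ul). Start with DiFMUP at enzyme Km (~45 μM for PTPN2). Read DiFMU ex360/em450 continuously 15–30 min; initial rate vs concentration, 4-parameter fit → IC50.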

| IC50 (PTPN2 (i.e., TC-PTP)) [nM] | IC50 (PTPN1 (i.e., PTP1B)) [nM] | Structure (SMILES) |
| --- | --- | --- |
| ≤ 1000 | ≤ 1000 | O=C1CN(c2c(O)ccc(-c3cc(C4CC4)n(CC(F)F)n3)c2F)S(=O)(=O)N1 [Compound 435, 5-(3-(5-cyclopropyl-1-(2,2-difluoroethyl)-1H-pyrazol-3-yl)-2-fluoro-6-hydroxyphenyl)-1,2,5-thiadiazolidin-3-one 1,1-dioxide] |
| ≤ 1000 | ≤ 1000 | O=C1CN(c2c(O)ccc(-c3ccc4ncccc4c3)c2F)S(=O)(=O)N1 [Compound 150, 5-(2-fluoro-6-hydroxy-3-(quinolin-6-yl)phenyl)-1,2,5-thiadiazolidin-3-one 1,1-dioxide] |
| ≤ 1000 | ≤ 1000 | O=C1CN(c2c(O)ccc(-c3cnn(C4CC5(CCC5)C4)c3)c2F)S(=O)(=O)N1 [Compound 242, 5-(2-fluoro-6-hydroxy-3-(1-(spiro[3.3]heptan-2-yl)-1H-pyrazol-4-yl)phenyl)-1,2,5-thiadiazolidin-3-one 1,1-dioxide] |
| ≤ 1000 | ≤ 1000 | O=C1CN(c2c(O)ccc(-c3cnn(C4CC4(F)F)c3)c2F)S(=O)(=O)N1 (stereo not drawn) [Compound 424, 5-(3-(1-(2,2-difluorocyclopropyl)-1H-pyrazol-4-yl)-2-fluoro-6-hydroxyphenyl)-1,2,5-thiadiazolidin-3-one 1,1-dioxide] |
| ≤ 1000 | ≤ 1000 | COCCCc1cc(-c2ccc(O)c(N3CC(=O)NS3(=O)=O)c2F)[nH]n1 [Compound 243, 5-(2-fluoro-6-hydroxy-3-(3-(3-methoxypropyl)-1H-pyrazol-5-yl)phenyl)-1,2,5-thiadiazolidin-3-one 1,1-dioxide] |
| ≤ 1000 | ≤ 1000 | CCCCNc1ccc(-c2ccc(O)c(N3CC(=O)NS3(=O)=O)c2F)cn1 [Compound 215, 5-(3-(6-(butylamino)pyridin-3-yl)-2-fluoro-6-hydroxyphenyl)-1,2,5-thiadiazolidin-3-one 1,1-dioxide] |
| ≤ 1000 | ≤ 1000 | NC1CCN(c2cc(-c3ccc(O)c(N4CC(=O)NS4(=O)=O)c3F)[nH]n2)C1 (stereo not drawn) [Compound 322, 5-(3-(3-(3-aminopyrrolidin-1-yl)-1H-pyrazol-5-yl)-2-fluoro-6-hydroxyphenyl)-1,2,5-thiadiazolidin-3-one 1,1-dioxide] |
| ≤ 1000 | ≤ 1000 | COCC1CCCN1c1cc(-c2ccc(O)c(N3CC(=O)NS3(=O)=O)c2F)[nH]n1 (stereo not drawn) [Compound 372, 5-(2-fluoro-6-hydroxy-3-(3-(2-(methoxymethyl)pyrrolidin-1-yl)-1H-pyrazol-5-yl)phenyl)-1,2,5-thiadiazolidin-3-one 1,1-dioxide] |
| ≤ 1000 | ≤ 1000 | O=C1CN(c2c(O)ccc(-c3cnn(C4CCC4)c3)c2F)S(=O)(=O)N1 [Compound 194, 5-(3-(1-cyclobutyl-1H-pyrazol-4-yl)-2-fluoro-6-hydroxyphenyl)-1,2,5-thiadiazolidin-3-one 1,1-dioxide] |
| ≤ 1000 | ≤ 1000 | O=C1CN(c2c(O)ccc(-c3cn(Cc4ccccc4)nn3)c2F)S(=O)(=O)N1 [Compound 205, 5-(3-(1-benzyl-1H-1,2,3-triazol-4-yl)-2-fluoro-6-hydroxyphenyl)-1,2,5-thiadiazolidin-3-one 1,1-dioxide] |
| ≤ 1000 | ≤ 1000 | CCn1cc(-c2ccc(O)c(N3CC(=O)NS3(=O)=O)c2F)cn1 [Compound 486, 5-(3-(1-ethyl-1H-pyrazol-4-yl)-2-fluoro-6-hydroxyphenyl)-1,2,5-thiadiazolidin-3-one 1,1-dioxide] |
| ≤ 1000 | ≤ 1000 | CCC1(c2cc(-c3ccc(O)c(N4CC(=O)NS4(=O)=O)c3F)[nH]n2)CC1 [Compound 369, 5-(3-(3-(1-ethylcyclopropyl)-1H-pyrazol-5-yl)-2-fluoro-6-hydroxyphenyl)-1,2,5-thiadiazolidin-3-one 1,1-dioxide] |
| ≤ 1000 | ≤ 1000 | O=C1CN(c2c(O)ccc(-c3cn[nH]c3)c2F)S(=O)(=O)N1 [Compound 477, 5-(2-fluoro-6-hydroxy-3-(1H-pyrazol-4-yl)phenyl)-1,2,5-thiadiazolidin-3-one 1,1-dioxide] |
| ≤ 1000 | ≤ 1000 | O=C1CN(c2c(O)ccc(-c3[nH]nc(C4CC4)c3F)c2F)S(=O)(=O)N1 [Compound 314, 5-(3-(3-cyclopropyl-4-fluoro-1H-pyrazol-5-yl)-2-fluoro-6-hydroxyphenyl)-1,2,5-thiadiazolidin-3-one 1,1-dioxide] |
| ≤ 1000 | ≤ 1000 | O=C1CN(c2c(O)ccc(-c3cn(CC4CCCCC4)nc3F)c2F)S(=O)(=O)N1 [Compound 385, 5-(3-(1-(cyclohexylmethyl)-3-fluoro-1H-pyrazol-4-yl)-2-fluoro-6-hydroxyphenyl)-1,2,5-thiadiazolidin-3-one 1,1-dioxide] |
| ≤ 1000 | ≤ 1000 | O=C1CN(c2c(O)ccc(-c3cnn(CCO)c3)c2F)S(=O)(=O)N1 [Compound 140, 5-(2-fluoro-6-hydroxy-3-(1-(2-hydroxyethyl)-1H-pyrazol-4-yl)phenyl)-1,2,5-thiadiazolidin-3-one 1,1-dioxide] |
| ≤ 1000 | ≤ 1000 | O=C1CN(c2c(O)ccc(-c3ccc(OCC4CC4)nc3)c2F)S(=O)(=O)N1 [Compound 166, 5-(3-(6-(cyclopropylmethoxy)pyridin-3-yl)-2-fluoro-6-hydroxyphenyl)-1,2,5-thiadiazolidin-3-one 1,1-dioxide] |
| ≤ 1000 | ≤ 1000 | O=C1CN(c2c(O)ccc(-c3cc(C(F)F)n[nH]3)c2F)S(=O)(=O)N1 [Compound 337, 5-(3-(3-(difluoromethyl)-1H-pyrazol-5-yl)-2-fluoro-6-hydroxyphenyl)-1,2,5-thiadiazolidin-3-one 1,1-dioxide] |
| > 1000 | ≤ 1000 | O=C1CN(c2c(Cl)ccc(-c3cc(C4CC4)n[nH]3)c2F)S(=O)(=O)N1 [Compound 487, 5-(6-chloro-3-(3-cyclopropyl-1H-pyrazol-5-yl)-2-fluorophenyl)-1,2,5-thiadiazolidin-3-one 1,1-dioxide] |
| ≤ 1000 | ≤ 1000 | CC(C)Cc1cc(-c2ccc(O)c(N3CC(=O)NS3(=O)=O)c2F)[nH]n1 [Compound 370, 5-(2-fluoro-6-hydroxy-3-(3-isobutyl-1H-pyrazol-5-yl)phenyl)-1,2,5-thiadiazolidin-3-one 1,1-dioxide] |
| ≤ 1000 | ≤ 1000 | N#Cc1cc(Cn2cc(-c3ccc(O)c(N4CC(=O)NS4(=O)=O)c3F)cn2)ccc1F [Compound 169, 5-((4-(3-(1,1-dioxido-4-oxo-1,2,5-thiadiazolidin-2-yl)-2-fluoro-4-hydroxyphenyl)-1H-pyrazol-1-yl)methyl)-2-fluorobenzonitrile] |
| ≤ 1000 | ≤ 1000 | O=C1CN(c2c(O)ccc(-c3cnn(Cc4ccc(F)c(F)c4)c3)c2F)S(=O)(=O)N1 [Compound 211, 5-(3-(1-(3,4-difluorobenzyl)-1H-pyrazol-4-yl)-2-fluoro-6-hydroxyphenyl)-1,2,5-thiadiazolidin-3-one 1,1-dioxide] |
| > 1000 | > 1000 | CC(C)CCn1cnc(-c2ccc(O)c(C3CC(=O)NS3(=O)=O)c2F)c1 (stereo not drawn) [Compound 246, 5-(2-fluoro-6-hydroxy-3-(1-isopentyl-1H-imidazol-4-yl)phenyl)isothiazolidin-3-one 1,1-dioxide] |
| ≤ 1000 | ≤ 1000 | CC(C)CCc1cc(-c2ccc(O)c(N3CC(=O)NS3(=O)=O)c2F)nn1C [Compound 380, 5-(2-fluoro-6-hydroxy-3-(5-isopentyl-1-methyl-1H-pyrazol-3-yl)phenyl)-1,2,5-thiadiazolidin-3-one 1,1-dioxide] |
| ≤ 1000 | ≤ 1000 | CC(C)N1CC=C(c2ccc(O)c(N3CC(=O)NS3(=O)=O)c2F)C1 [Compound 461, 5-(2-fluoro-6-hydroxy-3-(1-isopropyl-2,5-dihydro-1H-pyrrol-3-yl)phenyl)-1,2,5-thiadiazolidin-3-one 1,1-dioxide] |
| ≤ 1000 | ≤ 1000 | CC(C)CCn1cc(-c2ccc(O)c(N3CC(=O)NS3(=O)=O)c2Cl)cn1 [Compound 175, 5-(2-chloro-6-hydroxy-3-(1-isopentyl-1H-pyrazol-4-yl)phenyl)-1,2,5-thiadiazolidin-3-one 1,1-dioxide] |
| ≤ 1000 | ≤ 1000 | O=C1CN(c2c(O)ccc(-c3cnn(Cc4cccnc4)c3)c2F)S(=O)(=O)N1 [Compound 187, 5-(2-fluoro-6-hydroxy-3-(1-(pyridin-3-ylmethyl)-1H-pyrazol-4-yl)phenyl)-1,2,5-thiadiazolidin-3-one 1,1-dioxide] |
